Target: human H1R (Homo sapiens, UniProt P35367)
Type: binding
Conditions: between 13 and 17

human H1R, sequence (P35367 whole entry): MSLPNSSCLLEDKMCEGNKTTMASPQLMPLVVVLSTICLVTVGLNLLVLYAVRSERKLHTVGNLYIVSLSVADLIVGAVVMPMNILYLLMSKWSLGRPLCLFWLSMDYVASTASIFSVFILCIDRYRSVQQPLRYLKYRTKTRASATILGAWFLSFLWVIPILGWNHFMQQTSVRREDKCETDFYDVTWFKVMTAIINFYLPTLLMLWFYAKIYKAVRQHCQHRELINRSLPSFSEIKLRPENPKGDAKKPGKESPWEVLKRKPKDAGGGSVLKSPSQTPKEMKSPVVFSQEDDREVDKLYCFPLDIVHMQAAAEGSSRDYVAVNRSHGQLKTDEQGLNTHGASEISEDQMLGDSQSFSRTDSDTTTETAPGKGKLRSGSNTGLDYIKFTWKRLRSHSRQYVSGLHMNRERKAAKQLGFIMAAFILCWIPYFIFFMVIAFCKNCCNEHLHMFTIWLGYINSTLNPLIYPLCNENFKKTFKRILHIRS

`CN1CCC(=C2c3ccccc3CCc3ccccc32)CC1` [Compound 13, 4-(10,11-Dihydro-5H-dibenzo[a,d][7]annulen-5-ylidene)-1-methylpiperidine] was tested. Which “fold difference in affinity” value did it give?
Its value is 100 fold.

Reference: article PMC8154229 (ACS Omega, 2021)
